Reference: patent US6852499B2, “Luciferase detection reagent kits and luciferase detection method using the kit” (Toyo Ink Mfg. Co., Ltd., priority 2002, dated 2005)

Target: T1, Coleoptera luciferase (Photinus pyralis, UniProt P08659)
T1 construct: purchased Toyo Ink Manufacturing Co., Ltd. PGL100
Test: luciferin/luciferase luminescent reaction with an added sulfur reagent, measured on a luminometer
Assay type: biochemical
Conditions: for RLU/200 (integrated quantity of light emitted for 200 seconds) / max RLU (maximum quantity of light emitted): 100 ng/mL luciferase; for max RLU (maximum quantity of light emitted): initial 200 seconds; for emission pattern (glow vs flash luminescence): reagent without thiol reagent, 200 seconds
Protocol: The luciferase used was one included in a commercially available kit (Toyo Ink Manufacturing Co., Ltd.; product No. PGL100).
A “luciferase luminescent reagent” containing 20 mM tricine, 1.07 mM (MgCO3)4Mg(OH)2·5H2O, 2.67 mM magnesium sulfate, 0.1 mM EDTA, 270 μM CoA, 470 μM luciferin and 530 μM adenosine triphosphate (ATP), pH 7.8 was prepared in accordance with the formulation described in the instructions included in “PicaGene Luminescent Kit” (Toyo Ink Manufacturing Co., Ltd.; product No. PGL100), except that 33.3 mM dithiothreitol (DTT) mentioned in the instructions was not added. To the “luciferase luminescent reagent” was added sodium diethyldithiocarbamate at final concentrations of 0 mM, 0.33 mM, 3.3 mM and 33.3 mM.
An enzyme solution containing 100 ng/mL of luciferase was collected in 10 μL in a measurement cuvette of a luminometer (Berthold, LB9506). To the enzyme solution was added 100 μL of each of the “luciferase luminescent reagents” prepared above. Immediately after the addition, the resulting mixed solution was loaded on the luminometer, and the quantity of light emitted was measured for the initial 200 seconds of the reagent addition to determine the maximum quantity of light emitted (RLU/sec) during the period of measurement and the integrated quantity of light emitted for 200 seconds (RLU/200 sec) (Table 2).
(§1) A “luciferase luminescent reagent” containing 20 mM tricine, 1.07 mM (MgCO3)4Mg(OH)2·5H2O, 2.67 mM magnesium sulfate, 0.1 mM EDTA, 270 μM CoA, 470 μM luciferin and 530 μM adenosine triphosphate (ATP), pH 7.8 was prepared in accordance with the formulation described in the instructions included in “PicaGene Luminescent Kit” (Toyo Ink Manufacturing Co., Ltd.; product No. PGL100), except that 33.3 mM dithiothreitol (DTT) mentioned in the instructions was not added.
A “luciferase luminescent reagent” containing 20 mM tricine, 1.07 mM (MgCO3)4Mg(OH)2·5H2O, 2.67 mM magnesium sulfate, 0.1 mM EDTA, 270 μM CoA, 470 μM luciferin and 530 μM adenosine triphosphate (ATP), pH 7.8 was prepared in accordance with the formulation described in the instructions included in “PicaGene Luminescent Kit” (Toyo Ink Manufacturing Co., Ltd.; product No. PGL100), except that 33.3 mM dithiothreitol (DTT) mentioned in the instructions was not added. To the “luciferase luminescent reagent” was added potassium xanthogenate at final concentrations of 0 mM, 0.33 mM 3.3 mM and 33.3 mM.
To the enzyme solution was added 100 μL of each of the “luciferase luminescent reagents” prepared above. Immediately after the addition, the resulting mixed solution was loaded on the luminometer, and the quantity of light emitted was measured for the initial 200 seconds of the reagent addition to determine the maximum quantity of light emitted (RLU/sec) during the period of measurement and the integrated quantity of light emitted for 200 seconds (RLU/200 sec) (Table 2).
A “luciferase luminescent reagent” containing 20 mM tricine, 1.07 mM (MgCO3)4Mg(OH)2·5H2O, 2.67 mM magnesium sulfate, 0.1 mM EDTA, 270 μM CoA, 470 μM luciferin and 530 μM adenosine triphosphate (ATP), pH 7.8 was prepared in accordance with the formulation described in the instructions included in “PicaGene Luminescent Kit” (Toyo Ink Manufacturing Co., Ltd.; product No. PGL100), except that 33.3 mM dithiothreitol (DTT) mentioned in the instructions was not added. To the “luciferase luminescent reagent” was added 2-mercaptobenzothiazole at final concentrations of 0 mM, 0.33 mM 3.3 mM and 33.3 mM.
as §1

T1 sequence (P08659 whole entry): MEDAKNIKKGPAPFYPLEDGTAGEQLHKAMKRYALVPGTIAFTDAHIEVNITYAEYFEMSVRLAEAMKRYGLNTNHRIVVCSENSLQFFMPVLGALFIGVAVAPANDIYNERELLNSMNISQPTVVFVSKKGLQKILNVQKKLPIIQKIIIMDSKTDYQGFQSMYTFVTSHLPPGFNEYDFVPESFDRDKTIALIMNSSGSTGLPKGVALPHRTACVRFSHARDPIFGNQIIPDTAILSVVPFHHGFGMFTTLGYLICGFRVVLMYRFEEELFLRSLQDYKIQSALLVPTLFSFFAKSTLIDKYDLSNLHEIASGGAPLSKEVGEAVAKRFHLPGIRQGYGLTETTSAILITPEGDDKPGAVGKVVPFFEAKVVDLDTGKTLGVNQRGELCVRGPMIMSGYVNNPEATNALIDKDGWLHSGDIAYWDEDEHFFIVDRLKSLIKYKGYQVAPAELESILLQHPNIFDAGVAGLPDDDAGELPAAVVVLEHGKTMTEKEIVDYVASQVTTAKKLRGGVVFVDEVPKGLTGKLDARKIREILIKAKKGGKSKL

| SMILES | integrated quantity of light emitted (RLU/for 200 sec), dependence on concentration (0 to 33.3 mM) | change of the maximum quantity of light emitted (RLU/sec) as compared with the system containing no reagent (0 mM) (0.33 mM and 3.3 mM) | maximum quantity of light emitted relative to the value for the system without DTT (33.3 mM) [times] | RLU/200 (integrated quantity of light emitted for 200 seconds) (final concentration 0.33 mM) | max RLU (maximum quantity of light emitted) (final concentration 0.33 mM) | RLU/200 (integrated quantity of light emitted for 200 seconds) (final concentration 3.3 mM) | max RLU (maximum quantity of light emitted) (final concentration 3.3 mM) | RLU/200 (integrated quantity of light emitted for 200 seconds) (final concentration 33.3 mM) | max RLU (maximum quantity of light emitted) (final concentration 33.3 mM) | increase in the integrated quantity of light emitted (RLU/200 sec) as compared with the system containing no reagent (0 mM) (0.33 mM and 3.3 mM) | maximum and integrated quantity of light emitted relative to the system at a lower concentration (33.3 mM vs 3.3 mM) | emission pattern (glow vs flash luminescence) | change of the maximum quantity of light emitted (RLU/sec) as compared with the system containing no reagent (0 mM) (0.33 mM) | increase in the integrated quantity of light emitted (RLU/200 sec) as compared with the system containing no reagent (0 mM) (0.33 mM) | maximum and integrated quantity of light emitted relative to the system at a lower concentration (33.3 mM vs 0.33 mM) | maximum and integrated quantity of light emitted relative to the systems at lower concentrations (33.3 mM vs 0.33 mM, 3.3 mM) |
| --- | --- | --- | --- | --- | --- | --- | --- | --- | --- | --- | --- | --- | --- | --- | --- | --- |
| O[C@H](CS)[C@H](O)CS (racemic) [DTT, dithiothreitol, reference compound] | increased with increasing DTT concentration | little difference | 1.8 | 511,723,424 RLU/200 sec | 3,359,620 RLU/sec | 579,940,160 RLU/200 sec | 3,221,070 RLU/sec | 667,250,048 RLU/200 sec | 3,434,180 RLU/sec | – | – | – | – | – | – | – |
| Sc1nc2ccccc2s1 [2-mercaptobenzothiazole] | – | increased only slightly | – | 492,116,224 RLU/200 sec | 3,267,710 RLU/sec | 622,578,816 RLU/200 sec | 3,410,350 RLU/sec | 421,084,568 RLU/200 sec | 2,603,090 RLU/sec | about 1.7 fold | nearly two-thirds | glow luminescence | – | – | – | – |
| CCOC(=S)[S-].[K+] [Potassium xanthogenate, potassium xanthogenate] | – | – | – | 616,747,200 RLU/200 sec | 3,232,620 RLU/sec | 92,549,720 RLU/200 sec | 473,070 RLU/sec | 4,519,292 RLU/200 sec | 24,210 RLU/sec | – | – | glow luminescence | increased only slightly | about 1.7 fold | about one-thirteenth | – |
| CCN(CC)C(=S)[S-].[Na+] [Sodium diethyldithiocarbamate, sodium diethyldithiocarbamate] | – | increased only slightly | – | 592,116,224 RLU/200 sec | 3,267,710 RLU/sec | 611,260,800 RLU/200 sec | 3,141,880 RLU/sec | 246,535,408 RLU/200 sec | 1,261,630 RLU/sec | about 1.7 fold | – | glow luminescence | – | – | – | about two-fifths |
